This is an account of results in patent US20010041716A1, “Compositions and methods for locally treating inflammatory diseases” (priority 1999, published 2001).

In brackets after ≈: the same amount, converted by molar mass. Where two headings read alike, the source gives them in different places. Marks after values point to notes of the source that are not given here.

For data set [1] the following is noted: 25° C.
The procedure of data set [2]:
Differential Thermal Analysis: The heat of fusion (ΔHf) and the entropy of fusion (ΔSf) of thalidomide and its N-alkyl analogs were determined with a Perkin-Elmer DSC7 Differential Scanning Calorimeter (DSC), which was calibrated with an indium standard.
Using this surmise, the solubility parameters for all the solutes were calculated. […] In each case the solutions are considered ideal at the peak of their parabolas.

For data set [3] the following is noted: n-octanol / phosphate buffer (pH 6.4).
The conditions of data set [4]: for Lag time TL = SD / Permeability coefficient P ± SD × 10^−3: pH 6. The method, then: Skin Preparation and Permeation: The human cadaver skin used in the permeation studies was obtained from the Anatomical Donation Program at the University of Michigan. Vertical Franz diffusion cells with a 4 ml capacity receptor compartment and a 0.8 cm^2 diffusion area were used in the permeation studies. The epidermal layer of the skin was mounted carefully onto the lower half of the cells of the difflusion apparatus with the stratum corneum facing up. The receptor compartments were filled with isotonic phosphate buffer (pH 6.4). The temperature of the cell system was maintained at 32° C. by circulating water from a constant temperature water bath through the jacket of the lower compartment of each cell assembly. To begin an experiment, the donor compartment was charged with 300 μl of fresh prepared saturated solution of the drug and covered immediately with Parafilm to prevent any significant evaporation of volatile components of the applied medium during the absorption experiment. At predetermined times, samples were taken and were directly assayed by HPLC to determine the drug concentration of each. Care was taken to maintain skin conditions.
The permeability coefficient for a given run was calculated from Fick's law of diffuision: [formula]
dC/dt is the steady-state slope of a plot of the amount of substance which had penetrated the skin against time in terms of jig/h. It was determined by taking the ratio of the total amount permeated in an interval of time to the length of the time interval.
A is the difflusional area, which was 0.8 cm^2.
ΔC is the concentration differential existing across the membrane. This was effectively equal to the saturation concentration in the donor phase (μg/ml) as, through total exchange sampling, a near zero receiver concentration (sink condition) was closely approximated. AC is, in effect, the thermodynamic force driving mass transfer. The maximum driving force is seen at the saturation solubility (excluding supersaturation).
VR is the volume of the receiver compartment (4 ml).
The permeation parameters (flux, J; lag time, TL and permeability coefficient, P) of thalidomide and its N-alkyl analogs from their saturated aqueous solutions (pH 6.0) and an ethanol/water/octanol vehicle are summarized in Table 4. The permeation data were plotted as the cumulative amount of drug penetrated through skin as a function of time. The steady-state flux was determined from the slope of the linear portion of the cumulative amount-time plot. The lag time (TL) was determined by extrapolating the linear portion of the curve to its intersection with the time axis. […] A bar plot of the mean steady-state flux and standard deviations (SD) for thalidomide and its N-alkyl analogs from water can be seen in FIG. 5. […] Typical cumulative amount permeated-time profiles for thalidomide and its N-alkyl analogs from the ethanol/water/octanol (Formulation C) vehicle are shown in FIG. 6.

Another data set relates to TNFα. The conditions noted are these: PBMCs stimulated in vitro with LPS; previous studies; cited from earlier work.

Regarding `CCCCCN1C(=O)CCC(N2C(=O)c3ccccc3C2=O)C1=O` (stereo not shown) [N-Pentyl Thalidomide, N-pentyl thalidomide], in data set [1], the “Solubility, Hexane ± SD” value was determined as 220 ± 10 µg/mL (≈ 670 µM) and the “Solubility, Water (pH 6.4) ± SD” value came out at 57.3 ± 1.46 μg/ml. Further, in data set [2], the “Activity of solid phase a2^s, ΔCp = 0” value is 1.29 × 10^−1; the “Activity of solid phase a2^s, ΔCp = ΔSp” value is 1.64 × 10^−1; the “Ln X2,ideal, ΔCp = 0” value is listed as −2.05; the “Ln X2,ideal, ΔCp = ΔSr” value was −1.81. For the same compound, in data set [2], the “Solubility parameter δ2 (Hexane), ΔCp = 0” value was 11.2 (cal/cm^3)^½ and the “Solubility parameter δ2 (Hexane), ΔCp = ΔSr” value is 11.2 (cal/cm^3)^½. Also, the “Koct ± SD (octanol/water partition coefficient)” value in data set [3] is 129 ± 1.05. In data set [4], the “Lag time TL = SD” value is recorded as 3 ± 1.6 h and the “Permeability coefficient P ± SD × 10^−3” value is listed as 19.68 ± 6.31 × 10^−3 (cm/h).
Take `O=C1CCC(N2C(=O)c3ccccc3C2=O)C(=O)N1` (stereo not shown) [Thalidomide, a-phthalimidoglutarimide, reference compound]: in data set [1], the “Solubility, Hexane ± SD” value was found to be 0.1 ± 0 µg/mL (≈ 0.387 µM) and the “Solubility, Water (pH 6.4) ± SD” value is listed as 52.1 ± 1.49 μg/ml. For the same compound, in data set [1] (listed as thalidomide), the “Solubility, Water (pH 6.4) ± SD” value was found to be 52 μg/ml. For the same compound, the “Inhibition of TNFα production” value in the data set on TNFα was “partially inhibit TNFα production”. For the same compound, in data set [2], the “Activity of solid phase a2^s, ΔCp = 0” value came out at 1.29 ×; the “Activity of solid phase a2^s, ΔCp = ΔSp” value is 8.07 ×; the “Ln X2,ideal, ΔCp = 0” value is given as −6.65; the “Ln X2,ideal, ΔCp = ΔSr” value is −4.82. Also, in data set [2], the “Solubility parameter δ2 (Hexane), ΔCp = 0” value is given as 13.2 (cal/cm^3)^½ and the “Solubility parameter δ2 (Hexane), ΔCp = ΔSr” value is given as 13.7 (cal/cm^3)^½. In addition, the “Koct ± SD (octanol/water partition coefficient)” value in data set [3] is 3.09 ± 1.03. Also, in data set [4], the “Lag time TL = SD” value came out at 2.2 ± 1.4 h and the “Permeability coefficient P ± SD × 10^−3” value is on record as <0.16 ± 0.00^b) × 10^−3 (cm/h).
Regarding `CN1C(=O)CCC(N2C(=O)c3ccccc3C2=O)C1=O` (stereo not shown) [N-Methyl Thalidomide, N-methyl thalidomide], in data set [1], the “Solubility, Hexane ± SD” value amounted to 90 ± 0 µg/mL (≈ 331 µM) and the “Solubility, Water (pH 6.4) ± SD” value was determined as 275.9 ± 6.39 μg/ml. Besides, the “Solubility, Water (pH 6.4) ± SD” value in data set [1] (listed as N-methyl thalidomide) was found to be 276 μg/ml. Also, in data set [2], the “Activity of solid phase a2^s, ΔCp = 0” value is reported as 1.03 × 10^−1; the “Activity of solid phase a2^s, ΔCp = ΔSp” value is given as 1.54 × 10^−1; the “Ln X2,ideal, ΔCp = 0” value is −2.27; the “Ln X2,ideal, ΔCp = ΔSr” value is recorded as −1.87. In data set [2], the “Solubility parameter δ2 (Hexane), ΔCp = 0” value is 12.2 (cal/cm^3)^½ and the “Solubility parameter δ2 (Hexane), ΔCp = ΔSr” value is recorded as 12.3 (cal/cm^3)^½. The “Koct ± SD (octanol/water partition coefficient)” value in data set [3] is 14.1 ± 1.05. In addition, in data set [4], the Maximum steady-state flux is listed as 11.47 μg/cm^2/h, the “Lag time TL = SD” value came to 2.8 ± 0.5 h and the “Permeability coefficient P ± SD × 10^−3” value is 1.17 ± 0.22 × 10^−3 (cm/h).
